Test results published in US20250340563A1, “FUSED PYRIDAZINE DERIVATIVES AS NLRP3 INHIBITORS” (Takeda Pharmaceutical Company Limited, priority 2022, published 2025).

Biological target: NLRP3 inflammasome (Homo sapiens, UniProt Q96P20)
Assay: IL-1β assay in IFN-γ-differentiated, LPS-primed, ATP-activated THP-1 cells (ELISA)
Format: cell-based
Settings: 50 ng/mL LPS priming, 2.5 mM ATP activation, 2 hours
Procedure: Monocytic THP-1 cells (ATCC: TIB-202) are maintained in accordance with the provider's instructions in RPMI media (Life Technologies, Cat #A10491-01); RPMI is supplemented with 10% heat inactivated fetal bovine serum (Hyclone Cat #SH30396.03). The cells are differentiated into macrophages by the addition of 25 ng/mL IFN-7 (PeproTech, Cat #300-02-100UG) for 24 hours at 37° C./5% CO2. Media is exchanged with fresh media with no FBS, and the cells are treated with 50 ng/mL LPS (priming step) for 24 hours at 37° C./5% CO2 (LPS-EK: Invivogen, Cat #tlrl-peklps). Media is exchanged with fresh media with no FBS. The cells are plated at 40,000 cells per well in 384-well flat-bottom cell culture plates (Costar 3764) containing compounds (added in 1:1000) in a 1:3.16 serial dilution series in DMSO and are incubated for 30 minutes at 37° C./5% CO2. The NLRP3 inflammasome is activated with the addition of 2.5 mM ATP (Sigma Cat #A3377) and the cells are incubated for 2 hours at 37° C./5% CO2. At the end of the incubation period, 40 μL supernatant is removed, and […] are monitored using an ELISA (Human […], R&D systems, Cat #DY201) in accordance with the manufacturer's instructions.
The IC50 values are calculated from a plot of percentage of inhibition versus the inhibitor concentration by a logistics curve fit according to: Y=[Bottom+(Top−Bottom)]/(1+10^[(Log IC50−X)·Hill Slope], where Y is the % inhibition at the inhibitor concentration, X, “Bottom” is the lowest inhibition value, i.e. 0%, “Top” is the maximum inhibition value, i.e. 100%, and the “Hill Slope” describes the slope of the sigmoidal curve between the “Bottom” and “Top” values. The curve fitting was conducted with internally developed software.

NLRP3 inflammasome, sequence (Q96P20 whole entry): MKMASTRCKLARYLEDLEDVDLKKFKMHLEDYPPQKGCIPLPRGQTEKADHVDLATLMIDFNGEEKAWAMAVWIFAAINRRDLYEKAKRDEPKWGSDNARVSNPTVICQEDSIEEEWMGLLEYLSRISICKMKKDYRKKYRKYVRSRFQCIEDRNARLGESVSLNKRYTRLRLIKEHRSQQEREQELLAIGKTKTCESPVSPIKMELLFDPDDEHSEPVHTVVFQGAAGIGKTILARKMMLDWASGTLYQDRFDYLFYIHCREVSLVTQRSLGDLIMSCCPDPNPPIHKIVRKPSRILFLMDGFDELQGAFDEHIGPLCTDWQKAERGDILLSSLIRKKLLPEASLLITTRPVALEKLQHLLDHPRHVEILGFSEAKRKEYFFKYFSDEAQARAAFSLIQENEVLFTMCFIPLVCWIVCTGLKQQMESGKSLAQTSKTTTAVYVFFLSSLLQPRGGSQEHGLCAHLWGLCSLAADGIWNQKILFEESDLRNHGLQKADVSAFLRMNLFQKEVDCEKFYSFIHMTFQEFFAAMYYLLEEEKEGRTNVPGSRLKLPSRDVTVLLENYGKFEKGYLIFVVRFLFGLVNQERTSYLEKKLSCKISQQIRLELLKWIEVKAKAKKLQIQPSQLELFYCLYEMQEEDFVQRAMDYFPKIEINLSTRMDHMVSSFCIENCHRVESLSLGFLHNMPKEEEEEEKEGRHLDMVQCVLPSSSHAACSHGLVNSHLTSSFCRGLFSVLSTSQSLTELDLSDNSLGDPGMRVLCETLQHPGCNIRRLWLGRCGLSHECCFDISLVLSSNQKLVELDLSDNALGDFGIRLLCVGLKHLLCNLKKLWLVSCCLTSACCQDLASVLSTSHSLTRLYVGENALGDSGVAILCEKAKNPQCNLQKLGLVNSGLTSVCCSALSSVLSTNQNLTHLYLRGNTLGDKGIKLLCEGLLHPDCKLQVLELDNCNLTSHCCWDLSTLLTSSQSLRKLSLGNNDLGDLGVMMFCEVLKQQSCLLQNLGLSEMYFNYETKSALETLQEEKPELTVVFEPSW

IC50 [nM]	SMILES
1660	CC(C)(C)c1ccc(-c2nnc(Nc3cccc(O)c3)c3ccccc23)cn1 [Example 9, 3-((4-(6-(tert-butyl)pyridin-3-yl)phthalazin-1-yl)amino)phenol]
4250	CN1CCCC(N(C)c2nnc(-c3ccc(Cl)cc3)c3ccccc23)C1 (stereo not shown) [Example 112, 4-(4-chlorophenyl)-N-methyl-N-(1-methylpiperidin-3-yl)phthalazin-1-amine]
692	COc1cc(Cl)ccc1-c1nnc(NC2CCCN(C)C2)c2cnccc12 (stereo not shown) [Example 47, 1-(4-chloro-2-methoxyphenyl)-N-(1-methylpiperidin-3-yl)pyrido[3,4-d]pyridazin-4-amine]
3630	COc1ccc(-c2nnc(NCC3(N4CCCC4)CC3)c3ccccc23)cc1 [Example 131, 4-(4-methoxyphenyl)-N-((1-(pyrrolidin-1-yl)cyclopropyl)methyl)phthalazin-1-amine]
136	COc1ccc(-c2nnc(N[C@@H]3C[C@@H](F)CN(C)C3)c3cnccc23)c(F)c1 [Example 180, N-((3R,5R)-5-fluoro-1-methylpiperidin-3-yl)-1-(2-fluoro-4-methoxyphenyl)pyrido[3,4-d]pyridazin-4-amine]
589	CN1C[C@H](F)C[C@@H](Nc2nnc(-c3ccc(Cl)cc3F)c3cnccc23)C1 [Example 183, 4-(4-chloro-2-fluorophenyl)-N-((3R,5R)-5-fluoro-1-methylpiperidin-3-yl)pyrido[3,4-d]pyridazin-1-amine]
3020	Clc1ccc(-c2nnc(NC3CCN(Cc4ccccc4)CC3)c3ccccc23)cc1 [Example 163, N-(1-benzylpiperidin-4-yl)-4-(4-chlorophenyl)phthalazin-1-amine]
1780	CN1CCCC(Nc2nnc(-c3ccc(Cl)cc3)c3c2CN(S(C)(=O)=O)CC3)C1 (stereo not shown) [Example 107, 1-(4-chlorophenyl)-N-(1-methylpiperidin-3-yl)-6-(methylsulfonyl)-5,6,7,8-tetrahydropyrido[3,4-d]pyridazin-4-amine]
1120	Cc1ccc(-c2nnc(Nc3cccc(O)c3)c3ccccc23)cc1 [Example 38, 3-((4-(p-tolyl)phthalazin-1-yl)amino)phenol]
4470	CN1CCCC(Nc2nnc(-c3cccc(Cl)c3)c3ccccc23)C1 (stereo not shown) [Example 17, 4-(3-chlorophenyl)-N-(1-methylpiperidin-3-yl)phthalazin-1-amine]
34	Cc1cc(Cl)ccc1-c1nnc(N[C@@H]2CCCN(C)C2)c2cnccc12 [Example 31, (R)-1-(4-chloro-2-methylphenyl)-N-(1-methylpiperidin-3-yl)pyrido[3,4-d]pyridazin-4-amine]
5250	CN1CCCC(Nc2nnc(-c3ccc(C(F)F)nc3)c3ccccc23)C1 (stereo not shown) [Example 2, 4-(6-(difluoromethyl)pyridin-3-yl)-N-(1-methylpiperidin-3-yl)phthalazin-1-amine]
3630	CN1CCCC(Nc2nnc(-c3ccc(Cl)cc3)c3c2CN(C2CC2)CC3)C1 (stereo not shown) [Example 103, 1-(4-chlorophenyl)-6-cyclopropyl-N-(1-methylpiperidin-3-yl)-5,6,7,8-tetrahydropyrido[3,4-d]pyridazin-4-amine]
3090	COc1cc(Cl)ccc1-c1nnc(NC2CCCN(C)C2)c2ccncc12 (stereo not shown) [Example 48, 4-(4-chloro-2-methoxyphenyl)-N-(1-methylpiperidin-3-yl)pyrido[3,4-d]pyridazin-1-amine]
3630	CCN1CC(C)C(Nc2nnc(-c3ccc(Cl)cc3)c3ccccc23)C1 (stereo not shown) [Example 159, 4-(4-chlorophenyl)-N-(1-ethyl-4-methylpyrrolidin-3-yl)phthalazin-1-amine]
804	CN1CCc2c(-c3ccc(Cl)cc3)nnc(NC3CCCN(C)C3)c2C1 (stereo not shown) [Example 101, 1-(4-chlorophenyl)-6-methyl-N-(1-methylpiperidin-3-yl)-5,6,7,8-tetrahydropyrido[3,4-d]pyridazin-4-amine]
3	CN1CCC[C@@H](Nc2nnc(-c3ccc(C(F)(F)F)cc3O)c3ccncc23)C1 [Example 90, (R)-2-(4-((1-methylpiperidin-3-yl)amino)pyrido[3,4-d]pyridazin-1-yl)-5-(trifluoromethyl)phenol]
1290	FC1(F)CNCC(Nc2nnc(-c3ccc(Cl)cc3)c3ccccc23)C1 (stereo not shown) [Example 191, 4-(4-chlorophenyl)-N-(5,5-difluoropiperidin-3-yl)phthalazin-1-amine]

IC50 [nM]	SMILES
4570	CN1CC(Nc2nnc(-c3ccc(Cl)cc3)c3ccccc23)C(C)(C)C1 (stereo not shown) [Example 157, 4-(4-chlorophenyl)-N-(1,4,4-trimethylpyrrolidin-3-yl)phthalazin-1-amine]
4900	CN1CCC(Nc2nnc(-c3ccc(Cl)cc3)c3ccccc23)C1=O (stereo not shown) [Example 109, 3-((4-(4-chlorophenyl)phthalazin-1-yl)amino)-1-methylpyrrolidin-2-one]
2290	CO[C@H]1C[C@@H](Nc2nnc(-c3ccc(Cl)cc3)c3ccccc23)C1 [Example 134, 4-(4-chlorophenyl)-N-(cis-3-methoxycyclobutyl)phthalazin-1-amine]
1480	FC(F)(F)CN1CCCC(Nc2nnc(-c3ccc(Cl)cc3)c3ccccc23)C1 (stereo not shown) [Example 147, 4-(4-chlorophenyl)-N-(1-(2,2,2-trifluoroethyl)piperidin-3-yl)phthalazin-1-amine]
1230	O[C@]1(C(F)(F)F)CCC[C@@H](Nc2nnc(-c3ccc(Cl)cc3)c3ccccc23)C1 (racemic) [Example 114]
1000	COc1cc(F)ccc1-c1nnc(N[C@@H]2C[C@@H](F)CN(C)C2)c2cnccc12 [Example 181, N-((3R,5R)-5-fluoro-1-methylpiperidin-3-yl)-1-(4-fluoro-2-methoxyphenyl)pyrido[3,4-d]pyridazin-4-amine]
1150	CN1CCCC(Nc2nnc(-c3ccccc3)c3ccccc23)C1 (stereo not shown) [Example 42, N-(1-methylpiperidin-3-yl)-4-phenylphthalazin-1-amine]
65	CN1CCCC(Nc2nnc(-c3ccc(C(F)(F)F)cc3)c3ccccc23)C1 (stereo not shown) [Example 13, N-(1-methylpiperidin-3-yl)-4-(4-(trifluoromethyl)phenyl)phthalazin-1-amine]
1220	CN1CCC[C@H](Nc2nnc(-c3ccc(Cl)cc3)c3ccncc23)C1 [Example 65, (S)-1-(4-chlorophenyl)-N-(1-methylpiperidin-3-yl)pyrido[3,4-d]pyridazin-4-amine]
2750	C[C@]1(O)C[C@H](Nc2nnc(-c3ccc(Cl)cc3)c3ccccc23)C1 [Example 119, trans-3-((4-(4-chlorophenyl)phthalazin-1-yl)amino)-1-methylcyclobutan-1-ol]
4380	COc1ccc(-c2nnc(Nc3cccc(O)c3)c3ncccc23)cc1 [Example 198, 3-((5-(4-methoxyphenyl)pyrido[2,3-d]pyridazin-8-yl)amino)phenol]
134	COc1ccc(-c2nnc(N[C@@H]3CCCN(CCF)C3)c3ccccc23)c(F)c1 [Example 61, (R)-4-(2-fluoro-4-methoxyphenyl)-N-(1-(2-fluoroethyl)piperidin-3-yl)phthalazin-1-amine]
692	F[C@H]1CNC[C@H](Nc2nnc(-c3ccc(Cl)cc3)c3ccncc23)C1 [Example 188, 1-(4-chlorophenyl)-N-((3R,5R)-5-fluoropiperidin-3-yl)pyrido[3,4-d]pyridazin-4-amine]
1050	CS(=O)(=O)N1CCCC(Nc2nnc(-c3ccc(Cl)cc3)c3ccccc23)C1 (stereo not shown) [Example 148, 4-(4-chlorophenyl)-N-(1-(methylsulfonyl)piperidin-3-yl)phthalazin-1-amine]
3890	COc1ccc(-c2nnc(NC3(CN4CCC4)CC3)c3ccccc23)cc1 [Example 132, N-(1-(azetidin-1-ylmethyl)cyclopropyl)-4-(4-methoxyphenyl)phthalazin-1-amine]
603	CN1CCC[C@@H](Nc2nnc(-c3ccc4c(c3)OCCO4)c3ccncc23)C1 [Example 26, (R)-1-(2,3-dihydrobenzo[b][1,4]dioxin-6-yl)-N-(1-methylpiperidin-3-yl)pyrido[3,4-d]pyridazin-4-amine]
708	COC1CC(N2CCCC(Nc3nnc(-c4ccc(Cl)cc4)c4ccncc34)C2)C1 (stereo not shown) [Example 197, 1-(4-chlorophenyl)-N-(1-(3-methoxycyclobutyl)piperidin-3-yl)pyrido[3,4-d]pyridazin-4-amine]
269	COc1ccc(-c2nnc(NC3CCCN(CCF)C3)c3ccccc23)cc1 (stereo not shown) [Example 141, N-(1-(2-fluoroethyl)piperidin-3-yl)-4-(4-methoxyphenyl)phthalazin-1-amine]

SMILES	IC50 [nM]
FC(F)CN1CCC(Nc2nnc(-c3ccc(Cl)cc3)c3ccccc23)C1 (stereo not shown) [Example 170, 4-(4-chlorophenyl)-N-(1-(2,2-difluoroethyl)pyrrolidin-3-yl)phthalazin-1-amine]	2140
